One may read the IC50 as the concentration that inhibits the measured activity by half. Low values mean greater potency in that assay, high ones weaker potency in that assay. The term inhibition denotes how much of the control response was suppressed.

The record followed here is paper PMC11557435, “Identification of novel SARS-CoV-2 3CLpro inhibitors by molecular docking, in vitro assays, molecular dynamics simulations and DFT analyses” (Frontiers in Pharmacology, 2024).

The target in this test is SARS-CoV-2 3CLpro (Severe acute respiratory syndrome coronavirus 2, UniProt P0DTD1). The experiment in a line: biochemical. Conditions: for inhibition at 50 µM: single point, 50 μM compound.

In turn, `CC[C@H](C)N(Cc1cccc(OC)c1)C[C@@H](O)COc1ccc(OC)cc1` [Compound 1] yielded an IC50 of 8.98 ± 0.57 µM and an inhibition at 50 µM of 85.4%.
`CC[C@H](C)[C@H](NC(=O)c1ccc2nc(-n3cccc3)sc2c1)C(=O)NCc1cccnc1` [Compound 5]: the IC50 came to 8.5 ± 0.26 µM and the inhibition at 50 µM turned out to be 84%.
Take `COc1cc(-c2nc3cnccn3c2Nc2cccc(Cl)c2)ccc1O` [Compound 10]: it took 9.08 ± 0.56 µM to reach half-maximal inhibition (IC50) and testing at 50 µM gave an inhibition of 78%.
In the case of `CCOc1ccc(NC(=O)C(CC(C)C)NC(=O)C2CCC(C)CC2)cc1` (stereo not drawn) [Compound 34], inhibition was half-maximal at 6.12 ± 0.42 µM (IC50) and at 50 µM the inhibition was 78.3%.
Compound `COc1ccc(NC(=O)c2ccccc2NC(=O)c2ccc([N+](=O)[O-])c(C)c2)cc1` [Compound 36] yielded an IC50 of 4.47 ± 0.39 µM and an inhibition at 50 µM of 81.9%.
As for `CCC(CC)C(=O)Nc1cccc(C(=O)Nc2ccccc2C(=O)Nc2ccc(OC)cc2)c1` [Compound 43], the concentration for half-maximal inhibition (IC50) is 6.99 ± 0.62 µM and the inhibition at 50 µM is 84.8%.
